In patent publication US20140163226A1, “NOVEL PYRIMIDINE DERIVATIVE AND PHARMACEUTICAL COMPOSITION INCLUDING SAME AS AN ACTIVE INGREDIENT” (HANMI PHARMACEUTICAL CO., LTD., priority 2011, published 2014) one finds IC50 data, which are given here for 28 molecules.

Molecules are shown by their SMILES.

The assay concerns the target T1, DGAT1 (Homo sapiens, UniProt O75907).
T1 construct: host or cells: HepG2 cell homogenate (supernatant after sonication and 2000×g centrifugation)
T1 sequence (O75907 1-488): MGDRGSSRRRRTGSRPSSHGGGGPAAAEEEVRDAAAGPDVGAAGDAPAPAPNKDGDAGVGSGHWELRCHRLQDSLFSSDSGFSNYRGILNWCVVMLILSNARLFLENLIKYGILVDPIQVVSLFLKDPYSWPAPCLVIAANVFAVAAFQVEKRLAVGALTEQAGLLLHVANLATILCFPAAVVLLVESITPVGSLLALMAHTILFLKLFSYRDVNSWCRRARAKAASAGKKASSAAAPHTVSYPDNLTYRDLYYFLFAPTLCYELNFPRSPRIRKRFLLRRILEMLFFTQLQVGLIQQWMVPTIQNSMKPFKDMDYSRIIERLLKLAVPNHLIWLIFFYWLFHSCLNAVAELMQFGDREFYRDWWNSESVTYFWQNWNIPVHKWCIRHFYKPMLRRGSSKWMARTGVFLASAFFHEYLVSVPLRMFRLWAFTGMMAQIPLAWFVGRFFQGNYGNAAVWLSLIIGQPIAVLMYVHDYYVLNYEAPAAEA
The assay is described as follows: Assay for inhibition of DGAT1 activity (IC50), in vitro enzymatic assay using homogenates of HepG2 cell line. The class given is biochemical. The conditions noted are these: inhibitory activity against DGAT1; HepG2 protein (25 μg), 1,2-dioleoyl-sn-glycerol (30 μM), 14C oleoyl coenzyme A (10 μM), room temperature, 60 mins. How it is done: In order to identify DGAT1 inhibitors, in vitro enzymatic assays were performed by using homogenates of HepG2 cell line (ATCC, USA, HB-8065). Briefly stated, HepG2 cells were inoculated in 10% FBS-supplemented medium at 1.0×10^7 cells/well, cultured at 37° C., and harvested 72 hrs later. The harvested cells were lysed by ultrasonic treatment, and centrifuged for at 4° C. (2000×g, 10 mins) to remove any uncracked cells and impurities. The supernatant thus formed was obtained, and stored at −70° C. after its protein contents were quantitatively analyzed.
DGAT1 activation was assayed by a modification of the method described by Coleman (Methods in Enzymology, 1992, 209, 98-102). The compound of the present invention ([…]) was incubated with HepG2 protein (25 μg), MgCl2 (150 mM) and 1,2-dioleoyl-sn-glycerol (30 μM) in a total assay volume of 200 μL in plastic tubes.
The reaction was started by adding ^14C oleoyl coenzyme A (10 μM final concentration) and incubated at room temperature for 60 mins. The reaction was ended when a mixed solution (300 μL) of 2-propanol and heptane (7:1) was added thereto. Radioactive triolein product was separated into the organic phase by adding heptane (200 μL) and 1.0 M carbonate buffer (200 μL, pH 9.5). DGAT1 activity was quantified by counting aliquots of the upper heptane layer by liquid […].
`O=C(O)Cc1ccc(-c2csc3c(-c4ccc(NC(=O)Nc5ccnc(Cl)c5)cc4)ncnc23)cc1` [Example 34, 2-(4-(4-(4-(3-(2-chloropyridin-4-yl)ureido)phenyl)thieno[3,2-d]pyrimidin-7-yl)phenyl)acetic acid] returned a half-inhibitory concentration (IC50) of less than 10 nM.

For `O=C(O)CCc1ccc(-c2csc3c(-c4ccc(NC(=O)Nc5cccc(Cl)c5)cc4)ncnc23)cc1` [Example 7, 3-(4-(4-(4-(3-(3-chlorophenyl)ureido)phenyl)thieno[3,2-d]pyrimidin-7-yl)phenyl)propanoic acid], the half-inhibitory concentration (IC50) is less than 1 nM.

In turn, `O=C(O)CCc1ccc(-c2csc3c(-c4ccc(NC(=O)Nc5cccc(C(F)(F)F)c5F)cc4)ncnc23)cc1` [Example 55, 3-(4-(4-(4-(3-(2-fluoro-3-(trifluoromethyl)phenyl)ureido)phenyl)thieno[3,2-d]pyrimidin-7-yl)phenyl)propanoic acid] registered a half-maximal inhibitory concentration (IC50) of less than 5 nM.

`O=C(O)CCc1ccc(-c2csc3c(-c4ccc(NC(=O)Nc5ccc(N6CCOCC6)cc5)cc4)ncnc23)cc1` [Example 44, 3-(4-(4-(4-(3-(4-morpholinophenyl)ureido)phenyl)thieno[3,2-d]pyrimidin-7-yl)phenyl)propanoic acid] had a half-maximal inhibitory concentration (IC50) of less than 10 nM.

On to `CN(C)c1ccc(NC(=O)Nc2ccc(-c3ncnc4c(-c5ccc(CCC(=O)O)cc5)csc34)cc2)cc1` [Example 40, 3-(4-(4-(4-(3-(4-(dimethylamino)phenyl)ureido)phenyl)thieno[3,2-d]pyrimidin-7-yl)phenyl)propanoic acid], for which the IC50 is less than 1 nM.

For `O=C(O)CCc1ccc(-c2csc3c(-c4ccc(NC(=O)Nc5ccc(F)c(F)c5)cc4)ncnc23)cc1` [Example 14, 3-(4-(4-(4-(3-(3,4-difluorophenyl)ureido)phenyl)thieno[3,2-d]pyrimidin-7-yl)phenyl)propanoic acid], the IC50 was less than 5 nM.

Consider `O=C(O)Cc1ccc(-c2csc3c(-c4ccc(NC(=O)Nc5cccc(Cl)c5)cc4)ncnc23)cc1` [Example 2, 2-(4-(4-(4-(3-(3-chlorophenyl)ureido)phenyl)thieno[3,2-d]pyrimidin-7-yl)phenyl)acetic acid], for which the IC50 was less than 1 nM.

In turn, `CN1CCC(NC(=O)Nc2ccc(-c3ncnc4c(-c5ccc(CCC(=O)O)cc5)csc34)cc2)CC1` [Example 51, 3-(4-(4-(4-(3-(1-methylpiperidin-4-yl)ureido)phenyl)thieno[3,2-d]pyrimidin-7-yl)phenyl)propanoic acid] yielded an IC50 of less than 1 nM.

The molecule `COc1cc(NC(=O)Nc2ccc(-c3ncnc4c(-c5ccc(CCC(=O)O)cc5)csc34)cc2)cc(OC)c1OC` [Example 24, 3-(4-(4-(4-(3-(3,4,5-trimethoxyphenyl)ureido)phenyl)thieno[3,2-d]pyrimidin-7-yl)phenyl)propanoic acid] yielded an IC50 of less than 5 nM.

`CN(C)c1ccc(NC(=O)Nc2ccc(-c3ncnc4c(-c5ccc(CC(=O)O)cc5)csc34)cc2)cc1` [Example 35, 2-(4-(4-(4-(3-(4-(dimethylamino)phenyl)ureido)phenyl)thieno[3,2-d]pyrimidin-7-yl)phenyl)acetic acid] showed an IC50 of less than 10 nM.

With `O=C(O)CCc1ccc(-c2csc3c(-c4ccc(NC(=O)Nc5cc(Cl)ccn5)cc4)ncnc23)cc1` [Example 42, 3-(4-(4-(4-(3-(4-chloropyridin-2-yl)ureido)phenyl)thieno[3,2-d]pyrimidin-7-yl)phenyl)propanoic acid], the IC50 was less than 5 nM.

In turn, `O=C(O)Cc1ccc(-c2csc3c(-c4ccc(Nc5nc6ccccc6s5)cc4)ncnc23)cc1` [Example 61, 2-(4-(4-(4-(benzo[d]thiazol-2-ylamino)phenyl)thieno[3,2-d]pyrimidin-7-yl)phenyl)acetic acid] yielded a half-inhibitory concentration (IC50) of less than 5 nM.

The molecule `CN1CCN(c2ccc(NC(=O)Nc3ccc(-c4ncnc5c(-c6ccc(CCC(=O)O)cc6)csc45)cc3)cc2)CC1` [Example 50, 3-(4-(4-(4-(3-(4-(4-methylpiperazin-1-yl)phenyl)ureido)phenyl)thieno[3,2-d]pyrimidin-7-yl)phenyl)propanoic acid] showed an IC50 of less than 20 nM.

`Cn1cc(-c2ccc(CCC(=O)O)cc2)c2ncnc(-c3ccc(NC(=O)Nc4ccccc4Cl)cc3)c21` [Example 57] returned a half-inhibitory concentration (IC50) of less than 50 nM.

`NC(=O)CCc1ccc(-c2csc3c(-c4ccc(NC(=O)Nc5cccc(Cl)c5)cc4)ncnc23)cc1` [Example 28, 3-(4-(4-(4-(3-(3-chlorophenyl)ureido)phenyl)thieno[3,2-d]pyrimidin-7-yl)phenyl)propanamide]: the IC50 is less than 5 nM.

For the molecule `O=C(Nc1ccc(-c2ncnc3c(-c4ccc(C(=O)O)cc4)csc23)cc1)Nc1cccc(Cl)c1` [Example 3, 4-(4-(4-(3-(3-chlorophenyl)ureido)phenyl)thieno[3,2-d]pyrimidin-7-yl)benzoic acid], the half-inhibitory concentration (IC50) is less than 1 nM.

Turning to `O=C(O)CCc1ccc(-c2csc3c(-c4ccc(NC(=O)Nc5cccc(Cl)c5)cc4)ncnc23)cc1F` [Example 30, 3-(4-(4-(4-(3-(3-chlorophenyl)ureido)phenyl)thieno[3,2-d]pyrimidin-7-yl)-2-fluorophenyl)propanoic acid], the IC50 was less than 1 nM.

Take `CC(C)(C(=O)O)c1ccc(-c2csc3c(-c4ccc(NC(=O)Nc5cccc(Cl)c5)cc4)ncnc23)cc1` [Example 59, 2-(4-(4-(4-(3-(3-chlorophenyl)ureido)phenyl)thieno[3,2-d]pyrimidin-7-yl)phenyl)-2-methylpropanoic acid]: the half-inhibitory concentration (IC50) was less than 1 nM.

In turn, `O=C(O)CCc1ccc(-c2csc3c(-c4ccc(NC(=O)Nc5ccc(-c6nn[nH]n6)cc5)cc4)ncnc23)cc1` [Example 49, 3-(4-(4-(4-(3-(4-(2H-tetrazol-5-yl)phenyl)ureido)phenyl)thieno[3,2-d]pyrimidin-7-yl)phenyl)propanoic acid] came in with an IC50 of less than 1 nM.

`O=C(O)Cc1ccc(-c2csc3c(-c4ccc(NC(=O)Nc5ccccc5)cc4)ncnc23)cc1` [Example 1, 2-(4-(4-(4-(3-phenylureido)phenyl)thieno[3,2-d]pyrimidin-7-yl)phenyl)acetic acid] came in with an IC50 of less than 5 nM.

`COc1ccc(Cl)c(NC(=O)Nc2ccc(-c3ncnc4c(-c5ccc(CCC(=O)O)cc5)csc34)cc2)c1` [Example 46, 3-(4-(4-(4-(3-(2-chloro-5-methoxyphenyl)ureido)phenyl)thieno[3,2-d]pyrimidin-7-yl)phenyl)propanoic acid]: the IC50 was less than 5 nM.

`O=C(O)CCc1ccc(-c2csc3c(-c4ccc(NC(=O)Nc5ccc(N6CCCC6)cc5)cc4)ncnc23)cc1` [Example 52, 3-(4-(4-(4-(3-(4-(pyrrolidin-1-yl)phenyl)ureido)phenyl)thieno[3,2-d]pyrimidin-7-yl)phenyl)propanoic acid]: the IC50 is less than 1 nM.

With `CS(=O)(=O)c1ccc(-c2csc3c(-c4ccc(NC(=O)Nc5cccc(Cl)c5)cc4)ncnc23)cc1` [Example 31, 1-(3-chlorophenyl)-3-(4-(7-(4-(methylsulfon)phenyl)thieno[3,2-d]pyrimidin-4-yl)phenyl)urea], the IC50 is less than 10 nM.

In the case of `O=C(O)CCc1ccc(-c2csc3c(-c4ccc(NC(=O)Nc5ccc(-n6cnnc6)cc5)cc4)ncnc23)cc1` [Example 53, 3-(4-(4-(4-(3-(4-(4H-1,2,4-triazol-4-yl)phenyl)ureido)phenyl)thieno[3,2-d]pyrimidin-7-yl)phenyl)propanoic acid], the concentration for half-maximal inhibition (IC50) is less than 50 nM.

Take `O=C(O)CCc1ccc(-c2csc3c(-c4ccc(NC(=O)Nc5cccc(F)c5)cc4)ncnc23)cc1` [Example 39, 3-(4-(4-(4-(3-(3-fluorophenyl)ureido)phenyl)thieno[3,2-d]pyrimidin-7-yl)phenyl)propanoic acid]: the half-maximal inhibitory concentration (IC50) is less than 1 nM.

The molecule `COc1ccccc1NC(=O)Nc1ccc(-c2ncnc3c(-c4ccc(CCC(=O)O)cc4)csc23)cc1` [Example 20, 3-(4-(4-(4-(3-(2-methoxyphenyl)ureido)phenyl)thieno[3,2-d]pyrimidin-7-yl)phenyl)propanoic acid] showed an IC50 of less than 5 nM.

`O=C(O)Cc1ccc(-c2csc3c(-c4ccc(NC(=O)NC5CCCCC5)cc4)ncnc23)cc1` [Example 16, 2-(4-(4-(4-(3-cyclohexylureido)phenyl)thieno[3,2-d]pyrimidin-7-yl)phenyl)acetic acid] yielded an IC50 of less than 1 nM.

With `O=C(O)Cc1ccc(-c2csc3c(-c4ccc(NC(=O)Nc5ccc(F)c(F)c5)cc4)ncnc23)cc1` [Example 4, 2-(4-(4-(4-(3-(3,4-difluorophenyl)ureido)phenyl)thieno[3,2-d]pyrimidin-7-yl)phenyl)acetic acid], the half-maximal inhibitory concentration (IC50) was less than 1 nM.

A word on the IC50: it is the concentration at which inhibition is half-maximal.
